Source: patent publication US20200317642A1, “AMINE-SUBSTITUTED HETEROCYCLIC COMPOUNDS AS EHMT2 INHIBITORS AND DERIVATIVES THEREOF” (Epizyme, Inc., priority 2017, published 2020)

Experiments:
[1] = test system: H3K9me2 in MDA-MB-231 cells; experiment: MDA-MB-231 H3K9me2 in-cell western assay (EHMT2 ICW); type: cell-based; conditions: Homo sapiens, Table 3, read-out: EHMT2 ICW (IC50 μM)
Outline: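 MDA-MB-231 cells (3,000/well) were exposed to compound for 48 h at 37 °C, 30 min at room temperature, then a further 48 h. Fixed cells were immunostained for H3K9me2 with DRAQ5 co-stain and read by infrared imaging at 700/800 nm. Inhibition was set against DMSO and UNC0638 wells; IC50 from four-parameter fit (top 100%, bottom 0%), triplicates.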

human EHMT2 913-1193 = biological target: T1, human EHMT2 913-1193 (Homo sapiens, UniProt Q96KQ7); experiment: EHMT2 enzyme assay on histone peptide substrate; type: biochemical; conditions: Table 3; histone H3 1-15 peptide, balanced conditions; read-out: EHMT2 PEP (IC50 μM)
T1 construct: recombinant purified human EHMT2 913-1193, Viva; purchased Viva
T1 sequence (Q96KQ7 913-1193): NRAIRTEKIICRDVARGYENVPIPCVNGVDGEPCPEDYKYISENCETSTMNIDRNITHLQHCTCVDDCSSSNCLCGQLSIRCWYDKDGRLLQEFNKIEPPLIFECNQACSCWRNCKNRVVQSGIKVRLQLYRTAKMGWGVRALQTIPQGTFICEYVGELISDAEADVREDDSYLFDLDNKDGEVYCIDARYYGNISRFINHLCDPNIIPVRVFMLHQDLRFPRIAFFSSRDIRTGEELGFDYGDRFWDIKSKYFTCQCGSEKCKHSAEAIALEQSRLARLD
Outline: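 Human EHMT2 913-1193 (0.031 nM) was preincubated 30 min with compound (10-point 3-fold series, top 50 μM final, 2% DMSO) in Bicine pH 7.5 buffer. Reaction ran 60 min at room temperature with ³H-SAM and biotinylated H3 1-15 peptide, both at Km. Methylated peptide was captured on streptavidin Flashplates; 1 mM SAH defined 100% inhibition.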

Row | IC50 [1] | IC50 (human EHMT2 913-1193) | Compound
1 | 1 to 10 µM | 1 to 10 µM | CCCCNC(=O)c1cc(Nc2nc(C)cc(NC)n2)ccc1Cl [Compound 9]
2 | > 10 µM | > 10 µM | CNc1cc(C)nc(Nc2ccc(C)c(C(=O)Nc3cc(C#N)ccn3)c2)n1 [Compound 30]
